The text below walks through data of US12565504B2, “Spirocyclic O-glycoprotein-2-acetamido-2-deoxy-3-d-glucopyranosidase inhibitors” (BIOGEN MA INC., priority 2019, dated 2026).

The target of series [1] is Recombinant full length human OGA enzyme (Homo sapiens (Human), UniProt O60502). The series can be described thus: OGA Enzyme Inhibition Biochemical Assay. As to conditions: 1 nM OGA, 100 μM 4-MUGlcNAc, 90 minutes, pH 6.4. Summed up: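 Full-length recombinant human OGA with fluorogenic 4-MUGlcNAc in McIlvaine buffer pH 6.4, 0.01% BSA; 90 min at room temperature, glycine pH 10 quench, fluorescence Ex 355/Em 460 nm. 10-point, 4-fold dilution from 20 μM; 4-parameter variable-slope fit.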
Sequence of Recombinant full length human OGA enzyme (O60502 whole entry): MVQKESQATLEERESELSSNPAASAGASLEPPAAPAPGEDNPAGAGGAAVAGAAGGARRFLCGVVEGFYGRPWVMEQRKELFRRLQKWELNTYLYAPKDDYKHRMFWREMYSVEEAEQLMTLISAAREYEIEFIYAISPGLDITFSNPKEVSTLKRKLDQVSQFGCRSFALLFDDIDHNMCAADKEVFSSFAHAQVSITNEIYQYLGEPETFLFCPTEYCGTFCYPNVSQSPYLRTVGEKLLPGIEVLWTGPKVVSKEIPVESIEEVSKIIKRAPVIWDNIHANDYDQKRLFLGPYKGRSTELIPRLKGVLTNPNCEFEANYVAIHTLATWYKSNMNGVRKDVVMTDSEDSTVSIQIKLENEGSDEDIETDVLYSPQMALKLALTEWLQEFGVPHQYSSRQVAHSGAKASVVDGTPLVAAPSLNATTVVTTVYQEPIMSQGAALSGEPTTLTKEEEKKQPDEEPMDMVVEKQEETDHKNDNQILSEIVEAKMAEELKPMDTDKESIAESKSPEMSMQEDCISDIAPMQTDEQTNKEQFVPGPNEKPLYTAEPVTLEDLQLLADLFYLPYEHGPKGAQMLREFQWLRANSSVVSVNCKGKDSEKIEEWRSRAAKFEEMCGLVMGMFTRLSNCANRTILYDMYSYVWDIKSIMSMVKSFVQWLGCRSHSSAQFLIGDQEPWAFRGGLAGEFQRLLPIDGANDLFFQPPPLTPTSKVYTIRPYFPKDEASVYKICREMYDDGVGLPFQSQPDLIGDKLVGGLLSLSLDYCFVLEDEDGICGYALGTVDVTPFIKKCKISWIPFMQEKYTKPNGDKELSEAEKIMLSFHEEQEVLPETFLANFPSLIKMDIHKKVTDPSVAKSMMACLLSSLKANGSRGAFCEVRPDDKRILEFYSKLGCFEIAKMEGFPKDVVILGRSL

For series [2] the following is noted: rat, microsomes, 1 μM, pH 7.4.
Protocol: (§1) Aliquots (40 uL) at 0, 5, 10, 15, 25 and 40 minutes post NADPH addition (or compound addition for reactions in absence of NADPH) were transferred into individual 96-well plate wells containing 40 ng/ml of 8-cyclopently-1,3-dipropylxanthine (CPDPX, internal standard) in 160 uL acetonitrile:methanol (1:1 v/v).
(§2) The LC/MS/MS system consisted of an ultra high throughput RapidFire® 300 system (Agilent Technologies, Santa Clara, CA) coupled to a Triple Quad 5500 mass spectrometer (ABSciex, Foster City, CA). Sample load and wash were performed on a RapidFire® C4 cartridge using 0.1% formic acid in water as mobile phase A and sample elution using 0.1% formic acid in acetonitrile:methanol (1:1 v/v) as mobile phase B.
(§3) CLint, app (apparent intrinsic clearance) was calculated using the following equation for microsome stability.
(§4) [formula] • where “a” represents 45 grams of liver/kg of body weight for rat. • CLint,app (apparent intrinsic clearance) was calculated using the following equation for hepatocyte stability: • CLhep (hepatic clearance) was calculated using the following equation for microsomes
(§5) [formula] • using 55 mL/minute/kg as Qh (hepatic blood flow) for rat.
Series [3] deals with OGA (S400 O-GLCNAC) (Homo sapiens (Human), UniProt O60502). Put plainly: Cellular OGA-Tau MSD Assay. The format is cell-based. As to conditions: HEK-293T cells transfected with OGT and Tau-V5; Tau-S400-GlcNAc MSD readout. Summed up: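 HEK-293T cells transiently co-expressing OGT and Tau-V5 were treated overnight at 37° C with compounds (top 1 uM, 3-fold, 10 points). Lysate Tau was captured on V5 antibody, and S400-GlcNAc was detected by MSD electrochemiluminescence. IC50 was derived from a 4-parameter fit of normalized % activity.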
Sequence of OGA (S400 O-GLCNAC) (O60502 whole entry): as above

Series [4] deals with P-gp (MDR1). The series can be described thus: MDR1-MDCK Efflux Ratio Assay. The format is in vitro ADME. As to conditions: dog, MDR1-MDCK cells, pH 7.4, read-out: MDR1-MDCK Efflux Ratio (B-A/A-B). How it is done: MDR1-MDCK cell monolayers were grown to confluence on microporous polyester membranes in 96-well Corning insert plates. The permeability assay buffer was Hanks' Balanced Salt Solution containing 10 mM HEPES at pH of 7.4. Loperamide (1 μM) was used as a positive control P-gp substrate. Propranolol and Bestatin (1 μM) were used as high and low permeability comparators, respectively.
Test compounds or positive control P-gp substrate/permeability comprators were added to respective apical and basolateral chambers for bidirectional assessment of permeability. Receiver buffer (transport buffer supplemented with 1% bovine serum albumin) was added to respective receiver chambers. MDR1-MDCK cells were incubated with test compounds at 37° C. with 5% CO2 for 2 hr. Samples were collected from the donor chamber at both 0 and 120 minutes, and from the receiver chamber at 120 minutes. Test and control compound concentrations were determined using LC-MS/MS analysis. Each determination was performed in triplicate.

Series [5] can be described thus: Rat Liver Microsome Stability Assay. As to conditions: rat liver microsomes 0.5 mg/mL, compound 1 μM; Qh 55 mL/minute/kg.
Protocol: as §1, §2, §3, §4, §5

pIC50: −log10 of the molar value. Where two headings read alike, the source gives them in different places. A value given as a limit tells only on which side of the number the result lay.

On to `CC(=O)Nc1nc(F)c(CN2CCC3(Cc4ncccc4O3)C2)s1` (centres unmarked) [Example 91, N-(5-((3H-spiro[furo[3,2-b]pyridine-2,3′-pyrrolidin]-1′-yl)methyl)-4-fluorothiazol-2-yl)acetamide], for which the negative logarithm of the IC50 (pIC50) in series [1] was 7.15. Further, in series [2], the “RLM % Qh (%)” value was 45%.
Take `CC(=O)Nc1nc(F)c(CN2C[C@@]3(Cc4cc(N5CCOCC5)ncc4O3)C[C@@H]2C)s1` [Example 36, N-(4-Fluoro-5-(((2R,5′S)-5′-methyl-5-morpholino-3H-spiro[furo[2,3-c]pyridine-2,3′-pyrrolidin]-1′-yl)methyl)thiazol-2-yl)acetamide]: the negative logarithm of the IC50 (pIC50) was above 9.00 in series [1] and 8.10 in series [3]. The efflux ratio at 2 hr in series [4] came to 9.3. For the same compound, the “RLM % Qh (%)” value in series [5] stood at 51%.
In the case of `CC(=O)Nc1ncc(CN2CCC3(Cc4cnc(Cl)cc4O3)C2)s1` (centres unmarked) [Example 8, N-(5-((6-Chloro-3H-spiro[furo[3,2-c]pyridine-2,3′-pyrrolidin]-1′-yl)methyl)thiazol-2-yl)acetamide], the pIC50 in series [1] is 7.13; in series [3] it was 6.18. Besides, the efflux ratio at 2 hr in series [4] came to 9.4. Besides, the “RLM % Qh (%)” value in series [5] was determined as 47%.
In the same order, the values of `CC(=O)Nc1nc(F)c(CN2CCCC3(C2)OCc2ccncc23)s1` (centres unmarked) [Example 73, N-(5-((1H-Spiro[furo[3,4-c]pyridine-3,3′-piperidin]-1′-yl)methyl)-4-fluorothiazol-2-yl)acetamide] are 8.04, 7.63, 21.6 and 78%.
